Test results: patent publication US10328051B2, “Proline or proline derivatives for the treatment of dementia” (priority 2014, dated 2019)

Legend:
[1] = Single ascending oral doses of CHP (Study 1001-68) and single IV dose (Study 0302-72): pharmacokinetics and safety in healthy volunteers; type: in vivo, human; conditions: healthy subjects
Excerpt: study title Safety, tolerability and pharmacokinetic profile of single ascending doses of oral cis-4-hydroxy-L-proline (CHP) in healthy volunteers Galmed study no. 1001-68-. Results FIGS. 3 and 4.
Study title: Single Dose Absolute Bioavailability (intravenous IV solution) and Safety Study of CHP in Healthy Volunteers-GALMED Study No: 0302-72. Results are in (FIGS. 5 and 6)
Six healthy volunteers (male, caucasian—18-45 years old) were recruited from the GCP-Galmed clinical centre. All healthy volunteers provided written informed consent prior to study participation. The study was approved by the independent Ethical Committee.
All volunteers were orally administered 2, 4, 6, 8, 10 and 12 grams of CHP with a wash out period of at least one week between doses of CHP.
The following blood and urine samples were collected for determination of the pharmacokinetics parameters of CHP and THP:
10 hours and immediately prior to administration of CHP (0 Hour), and at 0.25, 0.5, 1, 1.5, 2, 2.5, 3, 4, 5, 6, 12 and 24 hours after administration of CHP.
Urine was collected for the determination of the CHP and THP concentrations and the calculation of the elimination parameters of CHP and THP.
Six healthy volunteers (male, caucasian—18-45 years old) were recruited from the GCP-Galmed clinical centre. All healthy volunteers provided written informed consent prior to study participation. The study was approved by the independent Ethical Committee. Single doses of CHP were intravenously administered: 2.0 g, 4.0 g (2×2.0 g). Each dose level was administered to all healthy volunteers. There was a washout period of at least one week between doses.
The following safety parameters were determined at the pre- and post-study examinations: • 1. Vital signs • 2. Clinical laboratory: Blood chemistry, Haematology, Coagulation, Urinalysis • 3. Adverse events (Signs and Symptoms) have been recorded in each of the two treatment periods.

[2] = Multiple dose ascending bioavailability and safety study (Phase I) with oral CHP (Study 0202-71); type: in vivo, human
Procedure: Example 5—Study Title: Multiple Dose Ascending Bioavailability and Safety Study Phase 1 with Oral CHP-GALMED Study No: 0202-71
12 healthy Caucasian males were recruited (age: 18-45 years).
Multiple doses of CHP were orally administered: • 4×2.0 g CHP per day, for 14 consecutive days (total daily dose=8.0 g CHP) • 4×3.0 g CHP per day, for 14 consecutive days (total daily dose=12.0 g CHP) Each dose level was administered to all volunteers.
Objectives • To determine the pharmacokinetic parameters and safety of CHP and THP in plasma following oral administration of multiple doses of 8 g CHP (4×2 g) and 12 g CHP (4×3 g)—4× daily, τ=6 h, respectively, in 12 healthy subjects on Day 1 and Day 14. • To model and simulate plasma concentrations of CHP and THP during Days 1 to 14.

[3] = Tissue distribution and pharmacokinetics of single dose of radiolabelled 3H-CHP in mice (Study IPSS C053); type: in vivo; conditions: for Tissues that accumulated particularly high CHP concentrations: single dose 3H-CHP; for AUC-1 in the stomach / Cmax in the stomach / Cmax in brain & pituitary gland / AUC-1 for remaining carcass as % of the totaled AUC-1 for all tissues & samples: single dose 50 μCi 3H-CHP
Excerpt: Example 1: Tissue Distribution and Pharmacokinetic Study with CHP Study “Clinical Study in Mice on the Tissue Distribution and Pharmacokinetics of Single Dose of the Radiolabelled ^3H-CHP-Study No.: IPSS C053”—(FIG. 1). This Study has been Designed and Performed According to this Invention
1. Determination of ^3H-CHP distribution in 25 tissues, remaining carcass and whole blood over time.
2. Determination of pharmacokinetic parameters of CHP.
3. Comparison of intravenous (IV), and oral routes of administration.
^3H-CHP Labelling • CHP was labelled on the 4-prime position using tritium. • The scintillation counting technique detects the tritium atom. • Therefore the counting technique detects CHP and some metabolites which incorporate the tritium. […] They were selected using inclusion and exclusion criteria, and were therefore highly standardised.
Dosing Regimen • 48 animals were each administered 50 μCi ^3H-CHP at the start of the experiment. This was termed time zero (00:00 hrs). • 27 mice were dosed via the intravenous (IV) route. • 21 mice were dosed via the oral route. • Six (6) animals were not administered with CHP. They form two control groups of 3 mice each.
Data Collection • 3 mice were sacrificed following the SOP for anesthesia and according to the following time intervals
Sample Collection • From each sacrificed mouse, the following samples were taken: • Whole BloodEyes & Harderian GlandsKidneys & Adrenal GlandsAortaLiverLungSpleenUrinary BladderBone & Bone MarrowCaecumSmall IntestineLarge IntestineLymph Nodes (Mesenteric) Muscle, PancreasBrain & Pituitary GlandBrown FatSubcutaneous FatHeartThymousBoth TestesProstateSkinStomachThyroidSalivary GlandsRemaining CarcassUrine (collected if possible: in practise this was rare)
The remaining carcass sample consisted of the rest after removal of whole blood and the other tissues. Any material cleaned from other tissues listed above was also included. The collected remainings were homogenised before analysis.

[4] = Tissue distribution, bioaccumulation and pharmacokinetics following multiple dose administration of 3H-CHP in mice (Study IPSS E015); type: in vivo; conditions: multiple dose administration
Excerpt: Example 2. A Study in Mice on the Tissue Distribution, Bioaccumulation and Pharmacokinetics in Tissues, Connective and BrainTissues Following Multiple Dose Administration of ^3H-CHP Study No. IPSS E015 (FIG. 2)
According to this invention the study has been designed and performed as follows:
From each mouse sacrificed, the following organs & tissues samples were taken:
Liver, kidney, pancreas, limbic system, spinal fluid, brain stem, cerebrum, cerebellum, cartilage, ligaments and tendons (dense or fibrous connective tissue), loose connective tissue, and reticular connective tissue (supports lymph nodes, bone marrow, and spleen)

[5] = after oral administration of CHP 2 g-12 g
[6] = male, human, plasma, healthy subjects, oral 4×2.0 g CHP/day
[7] = oral CHP, administration 4× daily

SMILES: O=C(O)[C@@H]1C[C@@H](O)CN1 [THP, trans-4-hydroxy-L-proline]
- Oral clearance (average) [1, 5]: 798.42 mL/min
- Volume of distribution (average) [1, 5]: 804.70 L
- Correlation of Cmax and AUC(0-∞) with dose ([1]; oral CHP doses 2 g-12 g): dose linearity
- MRT ([1]; male, human, blood, after oral administration of CHP 2 g-12 g, read-out: Mean residence time (MRT) (average)): 23.2 h
- half-life ([1]; male, human, in vivo, after oral administration of CHP 2 g-12 g, read-out: Elimination half life (average) (converted)): 14.8 h
- Tmax ([1]; male, human, plasma, after oral administration of CHP 2 g-12 g): 4.92 h
- Cmax [2, 6]: 9560 ng/mL
- Tmax [2, 6]: 1.5 h
- half-life [2, 6]: 12.4 h
- MRT inf ([2]; male, human, plasma, healthy subjects, oral 4×2.0 g CHP/day, read-out: MRT (0-inf)): 19.1 h
- Accumulation following oral administration ([2]; multiple oral doses of CHP): remarkable extent
- Time after which a steady state was observed ([2]; multiple oral doses of CHP, 4× daily, simulation of plasma concentration-time curves): ~96 h
- Css,min lower if 2.0 g of CHP was administered (versus 3.0 g) [2, 7]: 24%
- Increase of AUCss,t, Css,max and Css,ave when the dose was increased from 2.0 g up to 3.0 g [2, 7]: approximately 50%

SMILES: O=C(O)C1C[C@H](O)CN1 (stereo partly shown) [^3H-CHP]
- Tissues that accumulated particularly high CHP concentrations ([3]; intravenous application): Pancreas, lymph nodes (mesenteric), kidneys & adrenal Glands, caecum, large intestine, small intestine, spleen, liver, urinary bladder
- Tissues that accumulated particularly high CHP concentrations ([3]; oral application): Pancreas, stomach, kidneys & adrenal glands, small intestine, lymph nodes (mesenteric), spleen, caecum, bone & bone marrow, large intestine, and liver
- AUC-1 in the stomach ([3]; IV): 10.493 DPM/mg
- Cmax in the stomach ([3]; IV): 3.269 DPM/mg
- Cmax in brain & pituitary gland ([3]; IV, control 4 DPM/mg): 876 DPM/mg
- AUC-1 for remaining carcass as % of the totaled AUC-1 for all tissues & samples ([3]; intravenous (IV)): 73.3%
- AUC-1 for remaining carcass as % of the totaled AUC-1 for all tissues & samples ([3]; oral): 61.8%
- AUC-1 in the stomach ([3]; oral): 27.297 DPM/mg
- Cmax in the stomach ([3]; oral): 7.361 DPM/mg
- Cmax in brain & pituitary gland ([3]; oral, control 1 DPM/mg): 419 DPM/mg
- Tissues with particular high levels of 3H-CHP accumulation [4]: kidneys and adrenal glands liver, pancreas loose connective tissue cartilage, reticular connective tissue, dense/fibrinous connective tissues
